Patent US20220023273A1, “METHODS FOR TREATING SYMPTOMS AND DISORDERS ASSOCIATED WITH LYSOSOMAL STORAGE DISEASES” (GENZYME CORPORATION, priority 2019, published 2022)
Read-outs that look alike come from different tables or passages of the source.

Legend:
Type in all cases: in vivo, human
[1] = system: glucosylceramide (GL-1), glucosylsphingosine (lyso-GL1); assay: GD3 clinical study: CSF and plasma biomarkers GL-1 and lyso-GL1; details: GD3, 15 mg/day oral + imiglucerase
Method: (§1) During the study patients were evaluated for safety and tolerability, CSF and plasma biomarkers (glucosylceramide, GL-1; glucosylsphingosine, lyso-GL1), pharmacokinetics, markers for systemic disease (spleen and liver volume measured by magnetic resonance imaging (MRI), platelet count, hemoglobin levels), indicia of interstitial lung disease (high resolution pulmonary computed tomography (CT)), and horizontal saccadic eye movement.
At baseline, the mean (±SD) GL-1 concentration in CSF was 7.1±2.8 ng/mL (range 4.4-11.1 ng/mL), while the mean (±SD) lyso-GL-1 concentration in CSF was 39.3±22.9 pg/mL (range 20.1-67.6 pg/mL). For comparison, the healthy GL-1 concentration in CSF is 4.5-5.9 ng/mL, and the healthy level of lyso-GL-1 in CSF is less than 5.0 pg/mL.

[2] = system: adult patients with Gaucher disease Type 3; assay: GD3 clinical study: markers for systemic disease (spleen volume, platelet count, hemoglobin); details: GD3, 15 mg/day oral + imiglucerase
Method: as §1
Individual patient data for platelet counts are shown in the table below (shown as 10^9 platelets/L): […]

[3] = GD3 clinical study: pharmacokinetics in plasma and CSF; details: for AUC: human, plasma, po, Day 1 (N = 5), read-out: AUC0_24 (mean ± SD)
Text: Patients 18 years of age or older with a clinical diagnosis of GD3 and documented deficiency of acid beta-glucosidase activity having received treatment with ERT for at least 3 years and with imiglucerase (Cerezyme) at a stable monthly dose for at least 6 months prior to enrollment were included in the study. Patients must have reached the following GD therapeutic goals: hemoglobin level of ≥11.0 g/dL for females and ≥12.0 g/dL for males; platelet count ≥100 000/mm3; spleen volume <10 multiples of normal (MN), or total splenectomy (provided the splenectomy occurred >3 years prior to randomization); liver volume <1.5 MN; and no bone crisis and free of symptomatic bone disease such as bone pain attributable to osteonecrosis and/or pathological fractures within the last year. Patients must have GD3 featuring oculomotor apraxia (supranuclear gaze palsy) characterized by a horizontal saccade abnormality.
as §1
A second interim analysis was performed when the first 6 patients had reached 52-weeks of treatment, as described above in section (A). This analysis included Patients 1-5 as described in section (A), as well as new Patient 6. All six patients had L444P (1448T/C) homozygous Gaucher phenotype.

[4] = system: adult patients with Gaucher disease Type 3; assay: GD3 clinical study: Scale for Assessment and Rating of Ataxia (SARA)
Method: The degree of ataxia at baseline and throughout the study was evaluated by the Scale for Assessment and Rating of Ataxia (SARA; Schmitz-Hubsch et al. [2006]), which assesses eight distinct attributes of cerebellar ataxia on a scale of 0-40. The eight attributes are gait, stance, sitting, speech disturbance, finger chase, nose-finger test, fast alternate hand movement, and heel-shin slide. SARA ataxia scoring results for all six patients is presented in the chart below: […]

[5] = system: GL-3 inclusions in skin cells; assay: Fabry clinical study: skin GL-3 inclusion score by light microscopy; details: Fabry males
Method: A three-year open-label investigation of Compound 2 in young classic Fabry disease patients was conducted in order to evaluate the long-term safety, pharmacodynamics and exploratory efficacy of Compound 2 in adult male Fabry patients. Eleven subjects enrolled in the study, and seven subjects completed all aspects of the study. All subjects were males diagnosed with classic Fabry disease confirmed by genotype and residual alpha-galactosidase activity below detection levels (9 of the 11 had nonsense mutation in the GLA gene). All subjects had lyso-GL3 levels in plasma of at least 65 ng/mL and had no prior Fabry disease-specific treatment. The median age of subject was 24 years (range 19-37).
(§2) Each sample was scored independently by 3 pathologists for the presence of GL-3 inclusions on a four-point scale, and rated as 0 (no/trace), 1 (mild), 2 (moderate), or 3 (severe) according to Eng et al., N. Engl. J. Med. 345:9-16 (2001). A single score per patient per time point was derived by taking the score rated by the majority of the three pathologists. If a majority score could not be derived, then the median score was used (resulting in some fractional scores). Plasma samples were also analyzed for GL-3, lyso-GL-3, GL-1 and GM3 at baseline and weeks 12, 26, 52 and 156. Pain scores and abdominal symptoms were analyzed at baseline and weeks 12, 26, 52, 104 and 156 using the SF-36 scoring protocol.

[6] = system: adult male Fabry patients; assay: Fabry clinical study: SF-36 bodily pain and abdominal pain assessment; details: Fabry males; for patients with decreased severity of abdominal pain / patients with improved overall bodily pain scores (SF-36) / patients with reduced number of days with gastrointestinal pain: 15 mg/day oral
Text: as §2
Patients were assessed using the Short Form-36 (SF-36) questionnaire on numerous visits from baseline to week 156. This is a 36-item questionnaire used to measure 8 various aspects of health (vitality, physical functioning, bodily pain, general health perceptions, physical role functioning, emotional role functioning, social role functioning and mental health). The score for each of the eight aspects ranges from 0 (maximum disability) to 100 (no disability), and thus, higher scores indicate good health condition. In addition, gastrointestinal symptoms, including abdominal pain, abdominal distention, and bowl movements, were assessed using a modified version of the inflammatory bowel severity scoring system. Particular questions asked as part of these assessments included: (1) whether the patient suffered abdominal pain within the last ten days, (2) what was the severity of abdominal pain suffered in the last ten days using a 0 (no pain) to 100 (very severe pain) scale, and (3) on how many days within the last ten days did the patient have abdominal pain.

[7] = system: plasma GL-1, GL-3, and GM3; assay: Phase 1 Study 2: pharmacodynamics
Method: The study enrolled and randomized 36 healthy adults (19 men and 17 women) (n=9 each to group).
Pharmacodynamic endpoints (plasma GL-1, GL-3, and GM3 concentrations) were assessed on Days 1-5, 8, 11, 13, and 14, at 0 hours […]; and on Day 15, at 24 hours after the Day 14 dose.

SMILES: CC(C)(NC(=O)O[C@@H]1CN2CCC1CC2)c1csc(-c2ccc(F)cc2)n1 [Compound 2, (S)-quinuclidin-3-yl (2-(2-(4-fluorophenyl)thiazol-4-yl)propan-2-yl)carbamate]
- plasma and CSF biomarkers for GD-3 ([1]; 26 weeks): significant improvements
- plasma and CSF biomarkers for GD-3 ([1]; 52 weeks): sustained significant improvements
- systemic deterioration ([2]; 26 weeks, all patients): absence of systemic deterioration
- changes in hemoglobin levels ([2]; 26 weeks): no clinically meaningful changes
- patients with reductions in splenic volume of 10% or more ([2]; 26 weeks): Two
- changes in hemoglobin levels ([2]; Week 52): no clinically meaningful changes
- patients with spleen volume reductions ([2]; Week 52): two
- Compound 2 in CSF, concentration 2-4 hours post dose (mean) ([3]; Day 1 (N = 6), GD3, 15 mg/day oral + imiglucerase): <LLOQ
- time at which steady state concentration is reached in plasma and CSF ([3]; GD3, 15 mg/day oral + imiglucerase): ≤ 4 Week
- Patient 5: lower concentrations of Compound 2 in plasma and CSF ([3]; Week 26, believed due to compliance or dosing errors): about 50%
- Patient 5: concentrations of Compound 2 in plasma and CSF ([3]; Week 52, believed due to compliance or dosing errors): undetectable
- crossing of the blood-brain barrier ([3]; all patients, GD3, 15 mg/day oral + imiglucerase): effectively cross the blood-brain barrier
- AUC ([3]; 26-week interim, GD3, 15 mg/day oral + imiglucerase): 715 ± 225 ng·h/mL
- AUC ([3]; 52-week interim, GD3, 15 mg/day oral + imiglucerase): 729 ± 205 ng·h/mL
- patients showing improvements in ataxia ([4]; 52 weeks, GD3, 15 mg/day oral + imiglucerase): 5 of 6
- SARA stance score, Patient 4 ([4]; Week 52 (baseline 1), knee pain and toe injury at exam): 5
- patients exhibiting an improvement in ataxia, excluding Patient 5 ([4]; Week 52, GD3, 15 mg/day oral + imiglucerase): 4 out of 5
- levels of GL-3 inclusions in the skin ([5]; 15 mg/day): consistently reduces the levels of GL-3 inclusions in the skin
- patients with a 1-point reduction in skin GL-3 score ([5]; by week 156, 15 mg/day oral): five
- patients with complete clearance of GL-3 inclusions ([5]; by week 156, 15 mg/day oral): two
- patients with no change in skin GL-3 score ([5]; by week 156, 15 mg/day oral): one
- abdominal pain and discomfort ([6]; 15 mg/day): consistently reduces abdominal pain and discomfort
- patients with decreased severity of abdominal pain ([6]; week 26, patients with gastrointestinal pain at baseline): four out of five
- patients with improved overall bodily pain scores (SF-36) ([6]; week 26): Seven of nine
- patients with reduced number of days with gastrointestinal pain ([6]; week 26): five of five
- patients with decreased severity of abdominal pain ([6]; week 156, patients with gastrointestinal pain at baseline): four out of four
- patients with improved overall bodily pain scores (SF-36) ([6]; week 156): three of six
- patients with reduced number of days with gastrointestinal pain ([6]; week 156): three of four
- day on which maximal sustained GM3 decreases start ([7]; all Compound 2 dose groups): 13 days
- Plasma GL-3 ([7]; all Compound 2 dose groups, low baseline values relative to LLOQ): decreased with time
- plasma GL-1 and GM3 levels ([7]; healthy adults, 5, 10, 20 mg once daily 14 days): decreased from baseline time- and dose-dependently
